Experimental data reported in ChEMBL document CHEMBL1208686, “Synthesis and antileishmanial activity of piperoyl-amino acid conjugates” (Eur J Med Chem, 2010).

What was measured:
Leishmania donovani [1] = test: Antileishmanial activity against Leishmania donovani amastigotes after 48 hrs by MTT assay; assay type: functional, organism-based
Leishmania donovani [2] = test: Antileishmanial activity against Leishmania donovani promastigotes after 48 hrs by MTT assay; assay type: functional, organism-based
PBMC [3] = test: Cytotoxicity against human PBMC at IC50 concentration after 48 hrs by MTT assay; assay type: cell-based
PBMC [4] = test: Cytotoxicity against human PBMC at 2 times IC50 concentration after 48 hrs by MTT assay; assay type: cell-based
Leishmania donovani [5] = test: Antileishmanial activity against Leishmania donovani infected in golden Syrian hamsters assessed as reduction of spleen weight at 250 mg/kg, ip administered 20 days after infection for 10 days (reference value: 503 +/- 34 mg); assay type: functional; details: route intraperitoneal
Leishmania donovani [6] = test: Antileishmanial activity against Leishmania donovani infected in golden Syrian hamsters assessed as reduction of spleen weight at 250 mg/kg, ip administered 20 days after infection for 10 days relative to control; assay type: functional; design: scale not given: the % may be the effect or the level left; details: route intraperitoneal
Leishmania donovani [7] = test: Antileishmanial activity against Leishmania donovani infected in golden Syrian hamsters assessed as reduction of spleen parasitic burden at 250 mg/kg, ip administered 20 days after infection for 10 days relative to control; assay type: functional; design: scale not given: the % may be the effect or the level left; details: route intraperitoneal
Leishmania donovani [8] = test: Antileishmanial activity against Leishmania donovani infected in golden Syrian hamsters assessed as reduction of spleen weight at 12.5 mg/kg, po administered 20 days after infection for 10 days (reference value: 503 +/- 34 mg); assay type: functional
Leishmania donovani [9] = test: Antileishmanial activity against Leishmania donovani infected in golden Syrian hamsters assessed as reduction of spleen weight at 12.5 mg/kg, po administered 20 days after infection for 10 days relative to control; assay type: functional; design: scale not given: the % may be the effect or the level left
Leishmania donovani [10] = test: Antileishmanial activity against Leishmania donovani infected in golden Syrian hamsters assessed as reduction of spleen parasitic burden at 12.5 mg/kg, po administered 20 days after infection for 10 days relative to control; assay type: functional; design: scale not given: the % may be the effect or the level left

Row | Compound | IC50 (Leishmania donovani [1]) | IC50 (Leishmania donovani [2]) | Activity (PBMC [3]) | Activity (PBMC [4]) | Activity (Leishmania donovani [5]) | Activity (Leishmania donovani [6]) | Activity (Leishmania donovani [7]) | Activity (Leishmania donovani [8]) | Activity (Leishmania donovani [9]) | Activity (Leishmania donovani [10])
1 | COC(=O)[C@@H](N)CCSC | 1900 µM | 1930 µM | 1.5% | 7.3% | – | – | – | – | – | –
2 | COC(=O)C(CCSC)NC(=O)/C=C/C=C/c1ccc2c(c1)OCO2 (stereo unspecified) | 168 µM | 823 µM | 4% | 7.5% | – | – | – | – | – | –
3 | COC(=O)C(Cc1ccc(O)cc1)NC(=O)CCCCc1ccc2c(c1)OCO2 (stereo unspecified) | 202 µM | 536 µM | 5% | 7.6% | – | – | – | – | – | –
4 | COC(=O)C(NC(=O)CCCCc1ccc2c(c1)OCO2)C(C)C (stereo unspecified) | 240 µM | 722 µM | 4.5% | 7.7% | – | – | – | – | – | –
5 | COC(=O)C(CCSC)NC(=O)CCCCc1ccc2c(c1)OCO2 (stereo unspecified) | 221 µM | 607 µM | 3% | 5% | – | – | – | – | – | –
6 | COC(=O)C(Cc1c[nH]c2ccccc12)NC(=O)CCCCc1ccc2c(c1)OCO2 (stereo unspecified) | 176 µM | 473 µM | 2.5% | 5% | – | – | – | – | – | –
7 | COC(=O)[C@@H](N)C(C)C | 1760 µM | 2350 µM | 4% | 6% | – | – | – | – | – | –
8 | COC(=O)C(Cc1ccccc1)NC(=O)/C=C/C=C/c1ccc2c(c1)OCO2 (stereo unspecified) | 197 µM | 834 µM | 4% | 7% | 353 mg | 30% | 35% | – | – | –
9 | COC(=O)C(Cc1ccc(O)cc1)NC(=O)/C=C/C=C/c1ccc2c(c1)OCO2 (stereo unspecified) | 210 µM | 791 µM | 3.5% | 6% | – | – | – | – | – | –
10 | COC(=O)C(NC(=O)/C=C/C=C/c1ccc2c(c1)OCO2)C(C)C (stereo unspecified) | 75 µM | 875 µM | 3% | 3.8% | 516 mg | – | 24% | – | – | –
11 | COC(=O)C(Cc1c[nH]c2ccccc12)NC(=O)/C=C/C=C/c1ccc2c(c1)OCO2 (stereo unspecified) | 119 µM | 855 µM | 3% | 5.2% | – | – | – | – | – | –
12 | O=C(/C=C/C=C/c1ccc2c(c1)OCO2)NC(Cc1ccccc1)C(=O)O (stereo unspecified) | 256 µM | 927 µM | 1.2% | 8.5% | – | – | – | – | – | –
13 | O=C(/C=C/C=C/c1ccc2c(c1)OCO2)NC(Cc1ccc(O)cc1)C(=O)O (stereo unspecified) | 249 µM | 761 µM | 4% | 6% | – | – | – | – | – | –
14 | CC(C)C(NC(=O)/C=C/C=C/c1ccc2c(c1)OCO2)C(=O)O (stereo unspecified) | 310 µM | 1030 µM | 5.5% | 9% | – | – | – | – | – | –
15 | CSCCC(NC(=O)/C=C/C=C/c1ccc2c(c1)OCO2)C(=O)O (stereo unspecified) | 237 µM | 1310 µM | 1.8% | 7.7% | – | – | – | – | – | –
16 | O=C(/C=C/C=C/c1ccc2c(c1)OCO2)NC(Cc1c[nH]c2ccccc12)C(=O)O (stereo unspecified) | 236 µM | 1020 µM | 3.6% | 10% | – | – | – | – | – | –
17 | COC(=O)C(Cc1ccccc1)NC(=O)CCCCc1ccc2c(c1)OCO2 (stereo unspecified) | 212 µM | 669 µM | 5.5% | 7.2% | – | – | – | – | – | –
18 | CCCCCCCCCCCCCCCCOP(=O)([O-])OCC[N+](C)(C)C [MILTEFOSINE] | 18 µM | 33 µM | 29% | 35% | – | – | – | 287 mg | 43% | 87%
19 | O=C(O)/C=C/C=C/c1ccc2c(c1)OCO2 [PIPERIC ACID] | 395 µM | 1760 µM | 4.5% | 8% | – | – | – | – | – | –
20 | O=C(/C=C/C=C/c1ccc2c(c1)OCO2)N1CCCCC1 [PIPERINE] | 752 µM | 2560 µM | 7% | 10% | – | – | – | – | – | –
21 | COC(=O)[C@@H](N)Cc1c[nH]c2ccccc12 [TRYPTOPHAN METHYL ESTER] | 1420 µM | 1370 µM | 1.8% | 5.3% | – | – | – | – | – | –
22 | COC(=O)[C@@H](N)Cc1ccc(O)cc1 [TYROSINE METHYL ESTER] | 1400 µM | 2090 µM | 0.3% | 5% | – | – | – | – | – | –
